From PubChem BioAssay (NCI)
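Tested at 5 concentrations; 48 h exposure; 96-well plates; endpoints linearly interpolated, else capped at highest concentration. GI50 = concentration required for 50% inhibition of growth. TGI denotes the concentration required for complete inhibition of growth.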

Columns and labels:
Assay in all cases: NCI tumour cell line growth inhibition, 48 h
[1] = tested on: 786-0 renal
[2] = tested on: A498 renal
[3] = tested on: A549 NSCLC
[4] = tested on: ACHN renal
[5] = tested on: BT-549 breast
[6] = tested on: CCRF-CEM leukemia
[7] = tested on: COLO 205 colon
[8] = tested on: DU-145 prostate
[9] = tested on: EKVX NSCLC
[10] = tested on: HCC-2998 colon
[11] = tested on: HCT-116 colon
[12] = tested on: HCT-15 colon
[13] = tested on: HL-60(TB) leukemia
[14] = tested on: HOP-62 NSCLC
[15] = tested on: HOP-92 NSCLC
[16] = tested on: HS 578T breast
[17] = tested on: HT29 colon
[18] = tested on: IGROV1 ovarian
[19] = tested on: K-562 leukemia
[20] = tested on: KM12 colon
[21] = tested on: LOX IMVI melanoma
[22] = tested on: M14 melanoma
[23] = tested on: MALME-3M melanoma
[24] = tested on: MCF7 breast
[25] = tested on: MDA-MB-231 breast
[26] = tested on: MDA-MB-435
[27] = tested on: MOLT-4 leukemia
[28] = tested on: NCI-H226 lung
[29] = tested on: NCI-H23 lung
[30] = tested on: NCI-H460 lung
[31] = tested on: NCI-H522 lung
[32] = tested on: NCI/ADR-RES ovarian
[33] = tested on: OVCAR-3 ovarian
[34] = tested on: OVCAR-4 ovarian
[35] = tested on: OVCAR-5 ovarian
[36] = tested on: OVCAR-8 ovarian
[37] = tested on: PC-3 prostate
[38] = tested on: RPMI-8226 leukemia
[39] = tested on: RXF 393 renal
[40] = tested on: SF-268 CNS
[41] = tested on: SF-295 CNS
[42] = tested on: SK-MEL-2 melanoma
[43] = tested on: SK-MEL-28 melanoma
[44] = tested on: SK-MEL-5 melanoma
[45] = tested on: SK-OV-3 ovarian
[46] = tested on: SN12C renal
[47] = tested on: SNB-19 CNS
[48] = tested on: SNB-75 CNS
[49] = tested on: SR leukemia
[50] = tested on: SW-620 colon
[51] = tested on: TK-10 renal
[52] = tested on: U251 CNS
[53] = tested on: UACC-257 melanoma
[54] = tested on: UACC-62 melanoma
[55] = tested on: UO-31 renal

CCSc1ccc([C@@H]2[C@@H](N)C(=O)N2c2cc(OC)c(OC)c(OC)c2)cc1 was tested, and the GI50 [1] was 80 nM, the TGI [1] was over 100000 nM and the GI50 [2] was 56.3 nM. For the same compound, the TGI [2] was 8290 nM, the GI50 [3] was 108 nM and the TGI [3] was over 100000 nM. The GI50 [4] was 71 nM, the TGI [4] was over 100000 nM and the GI50 [5] was 59.2 nM. It also gave a TGI [5] of over 100000 nM, a GI50 [6] of 43.9 nM and a TGI [6] of over 100000 nM. The GI50 [7] was 51.3 nM, the TGI [7] was 11700 nM and the GI50 [8] was 188 nM. It also gave a TGI [8] of over 100000 nM, a GI50 [9] of 638 nM and a TGI [9] of over 100000 nM. For the same compound, the GI50 [10] was 755 nM, the TGI [10] was over 100000 nM and the GI50 [11] was 44.8 nM. The TGI [11] was over 100000 nM, the GI50 [12] was 65.4 nM and the TGI [12] was over 100000 nM. For the same compound, the GI50 [13] was 25.7 nM, the TGI [13] was 67 nM and the GI50 [14] was 60 nM. For the same compound, the TGI [14] was over 100000 nM, the GI50 [15] was 30200 nM and the TGI [15] was over 100000 nM. For the same compound, the GI50 [16] was 180 nM, the TGI [16] was over 100000 nM and the GI50 [17] was 33.3 nM. It also gave a TGI [17] of 18000 nM, a GI50 [18] of 1430 nM and a TGI [18] of over 100000 nM. The GI50 [19] was 35.9 nM, the TGI [19] was over 100000 nM and the GI50 [20] was 53.3 nM. It also gave a TGI [20] of over 100000 nM, a GI50 [21] of 75.4 nM and a TGI [21] of over 100000 nM. The GI50 [22] was 45.6 nM, the TGI [22] was over 100000 nM and the GI50 [23] was over 100000 nM. The TGI [23] was over 100000 nM, the GI50 [24] was 39.2 nM and the TGI [24] was over 100000 nM. For the same compound, the GI50 [25] was 376 nM, the TGI [25] was over 100000 nM and the GI50 [26] was 27.7 nM. The TGI [26] was 102 nM, the GI50 [27] was 52.8 nM and the TGI [27] was over 100000 nM. For the same compound, the GI50 [28] was 79000 nM, the TGI [28] was over 100000 nM and the GI50 [29] was 14300 nM. The TGI [29] was over 100000 nM, the GI50 [30] was 48.8 nM and the TGI [30] was over 100000 nM. For the same compound, the GI50 [31] was 23.8 nM, the TGI [31] was 96.6 nM and the GI50 [32] was 130 nM. It also gave a TGI [32] of over 100000 nM, a GI50 [33] of 33.8 nM and a TGI [33] of 2080 nM. The GI50 [34] was 9310 nM, the TGI [34] was over 100000 nM and the GI50 [35] was 892 nM. The TGI [35] was over 100000 nM, the GI50 [36] was 176 nM and the TGI [36] was over 100000 nM. For the same compound, the GI50 [37] was 77.3 nM, the TGI [37] was over 100000 nM and the GI50 [38] was 86.2 nM. It also gave a TGI [38] of 46900 nM, a GI50 [39] of 245 nM and a TGI [39] of over 100000 nM. It also gave a GI50 [40] of 87.2 nM, a TGI [40] of over 100000 nM and a GI50 [41] of 51.5 nM. The TGI [41] was over 100000 nM, the GI50 [42] was 47 nM and the TGI [42] was over 100000 nM. For the same compound, the GI50 [43] was 3790 nM, the TGI [43] was over 100000 nM and the GI50 [44] was 78.3 nM. For the same compound, the TGI [44] was over 100000 nM, the GI50 [45] was 54.5 nM and the TGI [45] was over 100000 nM. For the same compound, the GI50 [46] was 524 nM, the TGI [46] was over 100000 nM and the GI50 [47] was 71.5 nM. For the same compound, the TGI [47] was over 100000 nM, the GI50 [48] was 37.5 nM and the TGI [48] was over 100000 nM. The GI50 [49] was 44.9 nM, the TGI [49] was over 100000 nM and the GI50 [50] was 47.6 nM. For the same compound, the TGI [50] was over 100000 nM, the GI50 [51] was 30600 nM and the TGI [51] was over 100000 nM. The GI50 [52] was 61 nM, the TGI [52] was over 100000 nM and the GI50 [53] was over 100000 nM. For the same compound, the TGI [53] was over 100000 nM, the GI50 [54] was 45.1 nM and the TGI [54] was over 100000 nM. The GI50 [55] was 590 nM and the TGI [55] was over 100000 nM.
N=C(N)c1ccc(-c2ccc(-c3cncc4ccccc34)s2)s1 was tested, and the GI50 [8] was 1550 nM, the TGI [8] was 3000 nM and the GI50 [16] was 2220 nM. For the same compound, the TGI [16] was 4750 nM, the GI50 [36] was 1830 nM and the TGI [36] was 4400 nM. For the same compound, the GI50 [53] was 2470 nM and the TGI [53] was 5230 nM.
